Earlier results as cited in patent US9126163B2, “Nanoemulsions and processes for their preparation, and their use as formulations of plant protection agents and/or pesticides and/or cosmetic preparations” (Evonik Degussa GmbH, priority 2008, dated 2015).
Converted amounts (≈) assume the structure as drawn.

First: CC1(C)C(C=C(Cl)Cl)C1C(=O)OCc1cccc(Oc2ccccc2)c1 (stereo not shown) [permethrin]
Second: COC(=O)Nc1nc2ccccc2[nH]1 [carbendazim]
The solubility in water of the first is 4800-fold lower: 0.006 mg/L (≈ 0.0153 µM) for the first, 29 mg/L (≈ 152 µM) for the second.

Going from CCCCCCCCCCCCCN1CC(C)OC(C)C1 (stereo not shown) [tridemorph] to CO/C=C(/C(=O)OC)c1ccccc1Oc1cc(Oc2ccccc2C#N)ncn1 [azoxystrobin], the solubility in water rises from 1.1 mg/L (≈ 3.7 µM) to 6 mg/L (≈ 14.9 µM) (5.5-fold).

O=C(Nc1ccc([N+](=O)[O-])cc1Cl)c1cc(Cl)ccc1O [niclosamide] and COc1cc(OC)nc(NC(=O)NS(=O)(=O)c2ncccc2C(=O)N(C)C)n1 [nicosulfuron] are within 1.5-fold of each other in solubility in water: 100 mg/L (≈ 306 µM) for the first, 70 mg/L (≈ 171 µM) for the second.

In the case of abamectin, the solubility in water is listed as 0.007 to 0.01 mg/L.

In the case of Fc1ccc([C@]2(Cn3cncn3)O[C@H]2c2ccccc2Cl)cc1 (racemic) [epoxyconazole], the solubility in water is listed as 6.63*10^−4 g/100 ml.
In the case of Cc1c(COC(=O)[C@@H]2[C@H](/C=C(\Cl)C(F)(F)F)C2(C)C)cccc1-c1ccccc1 (racemic) [bifenthrin], the solubility in water is given as < 0.001 mg/L.

In the case of mancozeb, the solubility in water is listed as 6.2 ppm.
